# Reference: patent publication US20210299079A1, “MONOMETHYL FUMARATE-CARRIER CONJUGATES AND METHODS OF THEIR USE” (Flagship Pioneering Innovations V, Inc., priority 2018, published 2021)
# Structures can show the parent of a compound that is named as a salt.
# Legend:
# [1] = Stability of conjugates in Simulated Intestinal Fluid (SIF); assay type: in vitro ADME; conditions: SIF pH 6.7 with pancreatin, 37° C., 1 μM compound
# Experimental: Assay 2. Stability of conjugates in Simulated Intestinal Fluid (SIF). This assay was used to assess the stability of a conjugate in a small intestine.
# Phosphate buffer was prepared by dissolving 0.42 g of sodium hydroxide pellets and 3.95 g of monobasic sodium phosphate monohydrate and 6.19 g of sodium chloride in ultrapure water (MilliQ®, Millipore Sigma, Darmstadt, Germany). The pH was adjusted to 6.7 using aq. HCl and aq. NaOH, as necessary, and the solution was diluted with ultrapure water to produce 1 L of the pH 6.7 buffer.
# 112 mg FaSSIF powder (Biorelevant™, London, UK) was dissolved in 50 mL of the pH 6.7 buffer. 2 to 3 mL of the resulting solution were then added to 500 mg pancreatin (Millipore Sigma, Darmstadt, Germany). The resulting mixture was agitated by finger tapping the vessel containing the mixture until milky suspension formed. At this time, the remainder of the 50 mL FaSSiF/pH 6.7 buffer solution was added. The resulting suspension was flipped upside down 10 times to produce SIF, which was used fresh.
# (§1) Test compounds were dissolved in DMSO stock to 1 mM. An aliquot of the DMSO stock solution was removed and diluted in the SIF media in 15 mL falcon tubes to produce a mixture with a tested compound concentration of 1 μM. A 1 mL aliquot was immediately removed and diluted once with 1 volume of acetonitrile for TO timepoint. The mixture was sealed and agitated at 37° C. in an incubator. Aliquots (1 mL) were removed at regular intervals and immediately quenched by the addition of 1 volume of acetonitrile. The resulting samples were analyzed by LC/MS to determine degradation rates
# [2] = In vitro Colonic Material Stability Assay; assay type: in vitro ADME; conditions: colonic material slurry in YCFAC media, anaerobic, 1 or 10 μM
# Experimental: Assay 3. In vitro Colonic Material Stability Assay. This assay was used to assess the stability of a conjugate in a large intestine. All experiments were performed in an anaerobic chamber containing 90% nitrogen, 5% hydrogen and 5% carbon dioxide. Colonic material was resuspended as a slurry (15% w/v final concentration) in pre-reduced, anaerobically sterilized dilution blanks (Anaerobe Systems AS-908). The colonic material was then inoculated into 96 well plates containing YCFAC media (Anaerobe Systems AS-680) or other suitable media (6.7 μL slurry into 1 mL total media). Compounds or groups of compounds were added to each individual well to reach a final analyte concentration of 1 or 10 μM, and the material was mixed by pipetting. Sample was removed after set timepoints (0, 120, 240, 480, 1440, 2880 minutes after initiation of the assay), quenched with acetonitrile containing internal standard, and analyzed by LC/MS.
# [3] = Stability of conjugates in Simulated Gastric Fluid (SGF); assay type: in vitro ADME; conditions: SGF pH 1.6 with pepsin, 37° C., 1 μM compound
# Experimental: Assay 1. Stability of conjugates in Simulated Gastric Fluid (SGF). This assay was used to assess the stability of a conjugate in a stomach.
# Medium was prepared by dissolving 2 g of sodium chloride in 0.6 L in ultrapure water (MilliQ®, Millipore Sigma, Darmstadt, Germany). The pH was adjusted to 1.6 with 1N hydrochloric acid, and the volume was then adjusted to 1 L with purified water.
# 60 mg FaSSIF powder (Biorelevant™, London, UK) were dissolved in 500 mL buffer (above). Pepsin was added (0.1 mg/mL) (Millipore Sigma, Darmstadt, Germany), and the solution was stirred. The resulting SGF media were used fresh for each experiment.
# as §1, with “SGF Media” for “SIF media”, “generate” for “produce”, “total” for “mixture with a tested”, “mixed” for “agitated”, “rates in SGF.” for “rates”
# [4] = Gastrointestinal (GI) Exposure to Propionate (Study 1); assay type: in vivo, CD-1 mice; conditions: mouse; for Propionate-d3 AUClast / Propionate-d3 Tmax: single oral dose: Propionate-d3 62 mg/kg, Compound 3-d12 110 mg/kg, Compound 6-d9 91 mg/kg
# Experimental: In order to measure propionate concentrations along the GI track, CD-1 mice were orally administered a single dose of deuterated sodium propionate, Compound 3 comprising deuterated propionate, or Compound 6 comprising deuterated propionate (Propionate-d3, Compound 3-d12, and Compound 6-d9, respectively; suspension, 1% (w/v) methyl cellulose in deionized water). The amounts of compound dosed were normalized to provide approximately equimolar amounts of […] (Propionate-d3 at 62 mg/kg, Compound 3-d12 at 110 mg/kg, and Compound 6-d9 at 91 mg/kg). […] Blood samples were collected in K2EDTA tubes and stored on wet ice no more than 30 min and then further processed to plasma. GI samples were placed into separate labeled, pre-weighted collection tubes and frozen before analysis. Brain samples were homogenized prior to analysis. Samples were subsequently worked up and analyzed by LC-MS/MS for deuterated propionate concentration. Propionate concentrations versus time for different tissues are depicted in FIGS. 4A-4H and 5A-5C.
Structure (SMILES),Assay 2 (SIF) (% @ Remaining 4 hours) [1],Assay 3 (% Remaining at 24 h) [2],Assay 1 (SGF) (% Remaining @ 1 hour) [3],further results
"CCC(=O)OC[C@H]1O[C@H](OC(=O)/C=C/C(=O)OC)[C@H](OC(=O)CC)[C@@H](OC(=O)CC)[C@@H]1OC(=O)CC [Compound 4, Methyl ((2R,3R,4S,5R,6R)-3,4,5-tris(propionyloxy)-6-((propionyloxy)methyl)tetrahydro-2H-pyran-2-yl) fumarate]",C (C: >75% of the tested compound remaining),B (B: 25-75% of the tested compound remaining),B (B: 25-75% of the tested compound remaining),
"CCC(=O)O[C@@H]1[C@@H](OC(=O)CC)[C@H](OC(=O)/C=C/C(=O)OC)OC[C@@H]1OC(=O)CC [Compound 5, Methyl ((2S,3R,4S,5S)-3,4,5-tris(propionyloxy)tetrahydro-2H-pyran-2-yl) fumarate]",C (C: >75% of the tested compound remaining),A (A: <25% of the tested compound remaining),C (C: >75% of the tested compound remaining),
"CCCC(=O)O[C@@H]1[C@@H](OC(=O)CCC)[C@H](OC(=O)/C=C/C(=O)OC)OC[C@H]1OC(=O)CCC [Compound 7, Methyl ((2S,3R,4S,5R)-3,4,5-tris(butyryloxy)tetrahydro-2H-pyran-2-yl) fumarate]",A (A: <25% of the tested compound remaining),C (C: >75% of the tested compound remaining),C (C: >75% of the tested compound remaining),
"CCC(=O)O[C@@H]1[C@@H](OC(=O)CC)[C@@H](OC(=O)/C=C/C(=O)OC)OC[C@H]1OC(=O)CC [Compound 16, Methyl ((2R,3R,4S,5R)-3,4,5-tris(propionyloxy)tetrahydro-2H-pyran-2-yl) fumarate]",,C (C: >75% of the tested compound remaining),,
"CCC(=O)OC[C@H]1O[C@@H](OC(=O)/C=C/C(=O)OC)[C@H](N)[C@@H](OC(=O)CC)[C@@H]1OC(=O)CC.Cl [Compound 27, (2S,3R,4R,5S,6R)-2-(((E)-4-methoxy-4-oxobut-2-enoyl)oxy)-4,5-bis(propionyloxy)-6-((propionyloxy)methyl)tetrahydro-2H-pyran-3-aminium Chloride]",C (C: >75% of the tested compound remaining),B (B: 25-75% of the tested compound remaining),,
"CCCC(=O)OC[C@H]1O[C@H](OC(=O)/C=C/C(=O)OC)[C@H](N)[C@@H](OC(=O)CCC)[C@@H]1OC(=O)CCC.Cl [Compound 28, (2R,3R,4R,5S,6R)-4,5-bis(butyryloxy)-6-((butyryloxy)methyl)-2-(((E)-4-methoxy-4-oxobut-2-enoyl)oxy)tetrahydro-2H-pyran-3-aminium Chloride]",B (B: 25-75% of the tested compound remaining),B (B: 25-75% of the tested compound remaining),,
"COC(=O)/C=C/C(=O)Oc1cc(OC(=O)/C=C/C(=O)OC)c2c(c1)O[C@H](c1ccc(OC(=O)/C=C/C(=O)OC)c(OC(=O)/C=C/C(=O)OC)c1)[C@H](OC(=O)/C=C/C(=O)OC)C2 [Compound 53, O4-[2-[(E)-4-methoxy-4-oxo-but-2-enoyl]oxy-4-[(2R,3R)-3,5,7-tris[[(E)-4-methoxy-4-oxo-but-2-enoyl]oxy]chroman-2-yl]phenyl] O1-methyl (E)-but-2-enedioate]",A (A: <25% of the tested compound remaining),,C (C: >75% of the tested compound remaining),
"COC(=O)/C=C/C(=O)Oc1ccc(-c2oc3cc(OC(=O)/C=C/C(=O)OC)cc(OC(=O)/C=C/C(=O)OC)c3c(=O)c2OC(=O)/C=C/C(=O)OC)cc1 [Compound 54, 01-methyl O4-[4-[3,5,7-tris[[(E)-4-methoxy-4-oxo-but-2-enoyl]oxy]-4-oxo-chromen-2-yl]phenyl] (E)-but-2-enedioate]",A (A: <25% of the tested compound remaining),,C (C: >75% of the tested compound remaining),
"COC(=O)/C=C/C(=O)Oc1cc(OC(=O)/C=C/C(=O)OC)c2c(=O)c(OC(=O)/C=C/C(=O)OC)c(-c3ccc(OC(=O)/C=C/C(=O)OC)c(OC(=O)/C=C/C(=O)OC)c3)oc2c1 [Compound 55, O4-[2-[(E)-4-methoxy-4-oxo-but-2-enoyl]oxy-4-[3,5,7-tris[[(E)-4-methoxy-4-oxo-but-2-enoyl]oxy]-4-oxo-chromen-2-yl]phenyl] O1-methyl (E)-but-2-enedioate]",A (A: <25% of the tested compound remaining),,C (C: >75% of the tested compound remaining),
"COC(=O)/C=C/C(=O)Oc1ccc(-c2oc3cc(OC(=O)/C=C/C(=O)OC)cc(OC(=O)/C=C/C(=O)OC)c3c(=O)c2O)cc1 [Compound 56, O4-[4-[3-hydroxy-5,7-bis[[(E)-4-methoxy-4-oxo-but-2-enoyl]oxy]-4-oxo-chromen-2-yl]phenyl] O1-methyl (E)-but-2-enedioate]",A (A: <25% of the tested compound remaining),,C (C: >75% of the tested compound remaining),
"[2H]C([2H])([2H])CC(=O)[O-].[Na+] [Propionate-d3, sodium propionate-d3, reference compound]",,,,"Propionate-d3 AUClast ([4]; Brain): below quantitative; Propionate-d3 Tmax ([4]; Brain): 15 min; Propionate-d3 AUClast ([4]; Cecum): 76 nmol·h/g; Propionate-d3 Tmax ([4]; Cecum): 15 min; Propionate-d3 AUClast ([4]; Distal Colon): 31 nmol·h/g; Propionate-d3 Tmax ([4]; Distal Colon): 15 min; Propionate-d3 AUClast ([4]; Distal Intestine): 6.6 nmol·h/g; Propionate-d3 Tmax ([4]; Distal Intestine): 30 min; Propionate-d3 AUClast ([4]; Proximal Colon): 46 nmol·h/g; Propionate-d3 Tmax ([4]; Proximal Colon): 15 min; Propionate-d3 AUClast ([4]; Proximal Intestine): 13 nmol·h/g; Propionate-d3 Tmax ([4]; Proximal Intestine): 15 min; Propionate-d3 AUClast ([4]; Stomach): 7020 nmol·h/g; Propionate-d3 Tmax ([4]; Stomach): 15 min; region where the highest concentrations (Cmax) of propionate-d3 were observed ([4]; single oral dose, GI tissues): stomach"
